# According to patent US20080200454A1, “CARBON-LINKED TETRAHYDRO-PYRAZOLO-PYRIDINE MODULATORS OF CATHEPSIN S” (priority 2007, published 2008):
# Read-outs that look alike come from different tables or passages of the source.
# Target: Recombinant human cathepsin S (CatS) (Homo sapiens, UniProt P25774)
# Assay: Recombinant human cathepsin S (CatS) inhibition assay, fluorogenic substrate Z-Valine-Valine-Arginine-AMC;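 note: Baculovirus-expressed CatS in pH 5.0 sodium acetate buffer with DTT and NaCl, fluorescence read each minute over 20 min, inhibition derived from rate slope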
# [1] = CatS IC50, Table 2, average of results obtained
# Recombinant human cathepsin S (CatS), sequence (P25774 115-331): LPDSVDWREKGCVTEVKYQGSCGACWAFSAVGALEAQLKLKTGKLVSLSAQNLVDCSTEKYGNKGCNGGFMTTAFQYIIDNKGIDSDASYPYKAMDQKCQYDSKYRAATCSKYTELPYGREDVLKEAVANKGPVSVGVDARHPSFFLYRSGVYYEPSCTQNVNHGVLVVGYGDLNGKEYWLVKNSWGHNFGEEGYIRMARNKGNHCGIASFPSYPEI
SMILES,IC50 [1] [nM],IC50 (CatS IC50) [nM],also measured
"CS(=O)(=O)N1CCc2c(c(-c3ccc(Cl)c(C#Cc4ccc(C(=O)O)cc4)c3)nn2CCCN2CCOCC2)C1 [Example 19, 4-{2-Chloro-5-[5-methanesulfonyl-1-(3-morpholin-4-yl-propyl)-4,5,6,7-tetrahydro-1H-pyrazolo[4,3-c]pyridin-3-yl]-phenylethynyl}-benzoic acid]",420,–,–
"CS(=O)(=O)N1CCc2c(c(-c3ccc(Cl)c(C#Cc4ccncc4)c3)nn2CCCN2CCOCC2)C1 [Example 20, 3-(4-Chloro-3-pyridin-4-ylethynyl-phenyl)-5-methanesulfonyl-1-(3-morpholin-4-yl-propyl)-4,5,6,7-tetrahydro-1H-pyrazolo[4,3-c]pyridine]",540,–,–
"CS(=O)(=O)N1CCc2c(c(-c3ccc(Cl)c(C#Cc4cccnc4)c3)nn2CCCN2CCOCC2)C1 [Example 21, 3-(4-Chloro-3-pyridin-3-ylethynyl-phenyl)-5-methanesulfonyl-1-(3-morpholin-4-yl-propyl)-4,5,6,7-tetrahydro-1H-pyrazolo[4,3-c]pyridine]",–,–,IC50: 1320 nM
"CS(=O)(=O)N1CCc2c(c(-c3ccc(Cl)c(C#Cc4ccccn4)c3)nn2CCCN2CCOCC2)C1 [Example 22, 3-(4-Chloro-3-pyridin-2-ylethynyl-phenyl)-5-methanesulfonyl-1-(3-morpholin-4-yl-propyl)-4,5,6,7-tetrahydro-1H-pyrazolo[4,3-c]pyridine]",–,–,IC50: 1850 nM
"CS(=O)(=O)N1CCc2c(c(-c3ccc(Cl)c(C#Cc4ccsc4)c3)nn2CCCN2CCOCC2)C1 [Example 23, 3-(4-Chloro-3-thiophen-3-ylethynyl-phenyl)-5-methanesulfonyl-1-(3-morpholin-4-yl-propyl)-4,5,6,7-tetrahydro-1H-pyrazolo[4,3-c]pyridine]",1440,–,–
"COc1ccccc1C#Cc1cc(-c2nn(CCCN3CCOCC3)c3c2CN(S(C)(=O)=O)CC3)ccc1Cl [Example 24, 3-[4-Chloro-3-(2-methoxy-phenylethynyl)-phenyl]-5-methanesulfonyl-1-(3-morpholin-4-yl-propyl)-4,5,6,7-tetrahydro-1H-pyrazolo[4,3-c]pyridine]",–,560,–
"CS(=O)(=O)N1CCc2c(c(-c3ccc(Cl)c(C#Cc4cccc(Cl)c4)c3)nn2CCCN2CCOCC2)C1 [Example 25, 3-[4-Chloro-3-(3-chloro-phenylethynyl)-phenyl]-5-methanesulfonyl-1-(3-morpholin-4-yl-propyl)-4,5,6,7-tetrahydro-1H-pyrazolo[4,3-c]pyridine]",–,700,–
"CS(=O)(=O)N1CCc2c(c(-c3ccc(Cl)c(C#Cc4ccccc4Cl)c3)nn2CCCN2CCOCC2)C1 [Example 26, 3-[4-Chloro-3-(2-chloro-phenylethynyl)-phenyl]-5-methanesulfonyl-1-(3-morpholin-4-yl-propyl)-4,5,6,7-tetrahydro-1H-pyrazolo[4,3-c]pyridine]",–,720,–
"CS(=O)(=O)N1CCc2c(c(-c3ccc(Cl)c(C#Cc4ccc(Cl)cc4)c3)nn2CCCN2CCOCC2)C1 [Example 28, 3-[4-Chloro-3-(4-chloro-phenylethynyl)-phenyl]-5-methanesulfonyl-1-(3-morpholin-4-yl-propyl)-4,5,6,7-tetrahydro-1H-pyrazolo[4,3-c]pyridine]",–,200,–
"Cc1ccc(C#Cc2cc(-c3nn(CCCN4CCOCC4)c4c3CN(S(C)(=O)=O)CC4)ccc2Cl)cc1 [Example 29, 3-(4-Chloro-3-p-tolylethynyl-phenyl)-5-methanesulfonyl-1-(3-morpholin-4-yl-propyl)-4,5,6,7-tetrahydro-1H-pyrazolo[4,3-c]pyridine]",–,280,–
"CS(=O)(=O)N1CCc2c(c(-c3ccc(Cl)c(C#Cc4ccc(C(F)(F)F)cc4)c3)nn2CCCN2CCOCC2)C1 [Example 30, 3-[4-Chloro-3-(4-trifluoromethyl-phenylethynyl)-phenyl]-5-methanesulfonyl-1-(3-morpholin-4-yl-propyl)-4,5,6,7-tetrahydro-1H-pyrazolo[4,3-c]pyridine]",–,430,–
"CS(=O)(=O)N1CCc2c(c(-c3ccc(Cl)c(C#Cc4ccc(F)cc4)c3)nn2CCCN2CCOCC2)C1 [Example 31, 3-[4-Chloro-3-(4-fluoro-phenylethynyl)-phenyl]-5-methanesulfonyl-1-(3-morpholin-4-yl-propyl)-4,5,6,7-tetrahydro-1H-pyrazolo[4,3-c]pyridine]",440,–,–
"COc1ccc(C#Cc2cc(-c3nn(CCCN4CCOCC4)c4c3CN(S(C)(=O)=O)CC4)ccc2Cl)cc1 [Example 32, 3-[4-Chloro-3-(4-methoxy-phenylethynyl)-phenyl]-5-methanesulfonyl-1-(3-morpholin-4-yl-propyl)-4,5,6,7-tetrahydro-1H-pyrazolo[4,3-c]pyridine]",–,490,–
"CS(=O)(=O)N1CCc2c(c(-c3ccc(Cl)c(C#Cc4ccc(F)cc4F)c3)nn2CCCN2CCOCC2)C1 [Example 33, 3-[4-Chloro-3-(2,4-difluoro-phenylethynyl)-phenyl]-5-methanesulfonyl-1-(3-morpholin-4-yl-propyl)-4,5,6,7-tetrahydro-1H-pyrazolo[4,3-c]pyridine]",–,750,–
"CS(=O)(=O)N1CCc2c(c(-c3ccc(Cl)c(C#Cc4ccccc4C(F)(F)F)c3)nn2CCCN2CCOCC2)C1 [Example 34, 3-[4-Chloro-3-(2-trifluoromethyl-phenylethynyl)-phenyl]-5-methanesulfonyl-1-(3-morpholin-4-yl-propyl)-4,5,6,7-tetrahydro-1H-pyrazolo[4,3-c]pyridine]",870,–,–
"Cc1ccccc1C#Cc1cc(-c2nn(CCCN3CCOCC3)c3c2CN(S(C)(=O)=O)CC3)ccc1Cl [Example 35, 3-(4-Chloro-3-o-tolylethynyl-phenyl)-5-methanesulfonyl-1-(3-morpholin-4-yl-propyl)-4,5,6,7-tetrahydro-1H-pyrazolo[4,3-c]pyridine]",1050,–,–
"CS(=O)(=O)N1CCc2c(c(-c3ccc(Cl)c(C#Cc4cccc(C(F)(F)F)c4)c3)nn2CCCN2CCOCC2)C1 [Example 36, 3-[4-Chloro-3-(3-trifluoromethyl-phenylethynyl)-phenyl]-5-methanesulfonyl-1-(3-morpholin-4-yl-propyl)-4,5,6,7-tetrahydro-1H-pyrazolo[4,3-c]pyridine]",1450,–,–
"CS(=O)(=O)N1CCc2c(c(-c3ccc(Cl)c(C#Cc4ccc(C=O)cc4)c3)nn2CCCN2CCOCC2)C1 [Example 37, 4-{2-Chloro-5-[5-methanesulfonyl-1-(3-morpholin-4-yl-propyl)-4,5,6,7-tetrahydro-1H-pyrazolo[4,3-c]pyridin-3-yl]-phenylethynyl}-benzaldehyde]",120,–,–
"CS(=O)(=O)N1CCc2c(c(-c3ccc(Cl)c(C#Cc4ccc(N)cc4)c3)nn2CCCN2CCOCC2)C1 [Example 38, 4-{2-Chloro-5-[5-methanesulfonyl-1-(3-morpholin-4-yl-propyl)-4,5,6,7-tetrahydro-1H-pyrazolo[4,3-c]pyridin-3-yl]-phenylethynyl}-phenylamine]",330,–,–
"CS(=O)(=O)N1CCc2c(c(-c3ccc(Cl)c(C#Cc4ccccc4)c3)nn2CCCN2CCOCC2)C1 [Example 39, 3-(4-Chloro-3-phenylethynyl-phenyl)-5-methanesulfonyl-1-(3-morpholin-4-yl-propyl)-4,5,6,7-tetrahydro-1H-pyrazolo[4,3-c]pyridine]",610,–,–
"CC(C)(C)OC(=O)NCc1ccc(C#Cc2cc(-c3nn(CCCN4CCOCC4)c4c3CN(S(C)(=O)=O)CC4)ccc2Cl)cc1 [Example 40, (4-{2-Chloro-5-[5-methanesulfonyl-1-(3-morpholin-4-yl-propyl)-4,5,6,7-tetrahydro-1H-pyrazolo[4,3-c]pyridin-3-yl]-phenylethynyl}-benzyl)-carbamic acid tert-butyl ester]",–,–,IC50: 410 nM
"CS(=O)(=O)N1CCc2c(c(-c3ccc(Cl)c(C#CCc4ccccc4)c3)nn2CCCN2CCOCC2)C1 [Example 41, 3-[4-Chloro-3-(3-phenyl-prop-1-ynyl)-phenyl]-5-methanesulfonyl-1-(3-morpholin-4-yl-propyl)-4,5,6,7-tetrahydro-1H-pyrazolo[4,3-c]pyridine]",–,–,IC50: 3950 nM
"CS(=O)(=O)N1CCc2c(c(-c3ccc(Cl)c(C#CCCc4ccccc4)c3)nn2CCCN2CCOCC2)C1 [Example 42, 3-[4-Chloro-3-(4-phenyl-but-1-ynyl)-phenyl]-5-methanesulfonyl-1-(3-morpholin-4-yl-propyl)-4,5,6,7-tetrahydro-1H-pyrazolo[4,3-c]pyridine]",–,–,IC50: 9750 nM
"CS(=O)(=O)N1CCc2c(c(-c3ccc(Cl)c(C#CCCCc4ccccc4)c3)nn2CCCN2CCOCC2)C1 [Example 43, 3-[4-Chloro-3-(5-phenyl-pent-1-ynyl)-phenyl]-5-methanesulfonyl-1-(3-morpholin-4-yl-propyl)-4,5,6,7-tetrahydro-1H-pyrazolo[4,3-c]pyridine]",–,–,IC50: 5450 nM
"CS(=O)(=O)N1CCc2c(c(-c3ccc(Cl)c(C#CCCO)c3)nn2CCCN2CCOCC2)C1 [Example 45, 4-{2-Chloro-5-[5-methanesulfonyl-1-(3-morpholin-4-yl-propyl)-4,5,6,7-tetrahydro-1H-pyrazolo[4,3-c]pyridin-3-yl]-phenyl}-but-3-yn-1-ol]",920,–,–
"CS(=O)(=O)N1CCc2c(c(-c3ccc(Cl)c(C#CCCCO)c3)nn2CCCN2CCOCC2)C1 [Example 46, 5-{2-Chloro-5-[5-methanesulfonyl-1-(3-morpholin-4-yl-propyl)-4,5,6,7-tetrahydro-1H-pyrazolo[4,3-c]pyridin-3-yl]-phenyl}-pent-4-yn-1-ol]",–,–,IC50: 7950 nM
"CCCCC#Cc1cc(-c2nn(CCCN3CCOCC3)c3c2CN(S(C)(=O)=O)CC3)ccc1Cl [Example 47, 3-(4-Chloro-3-hex-1-ynyl-phenyl)-5-methanesulfonyl-1-(3-morpholin-4-yl-propyl)-4,5,6,7-tetrahydro-1H-pyrazolo[4,3-c]pyridine]",10600,–,–
"CS(=O)(=O)N1CCc2c(c(-c3ccc(Cl)c(C#CC4CCCCC4)c3)nn2CCCN2CCOCC2)C1 [Example 48, 3-(4-Chloro-3-cyclohexylethynyl-phenyl)-5-methanesulfonyl-1-(3-morpholin-4-yl-propyl)-4,5,6,7-tetrahydro-1H-pyrazolo[4,3-c]pyridine]",–,6750,–
